Source: patent publication US20260297037A1, “COMPOUND COMPRISING N-METHYLPIPERAZINE ETHANOL CARBAMATE STRUCTURE AND USE THEREOF” (KOREA INSTITUTE OF RADIOLOGICAL & MEDICAL SCIENCES, priority 2023, published 2026)

Experiments:
Type in all cases: in vivo, C57BL/6 mice
[1] = system: radiation-induced pulmonary fibrosis (RIPF); assay: Degree of inflammation and fibrosis, H&E and Masson's Trichrome staining, radiation-induced pulmonary fibrosis; conditions: SBRT 90 Gy, nintedanib 60 mg/kg, oral, 2 weeks after radiation exposure, vs untreated
Procedure: (§1) One hour before stereotactic body radiation therapy (SBRT; 90 Gy, 4 mm collimator), DCTP and nintedanib, an FDA-approved drug known to inhibit pulmonary fibrosis, were orally administered to seven-week-old male C57BL/6 mice. The degree of pulmonary fibrosis and the inhibitory effect on radiation-induced lung injury were observed two weeks after radiation exposure.
(§2) The DCTP drug was administered at a dose of 30 mg/kg, and nintedanib was administered once daily (o.d.) at a dose of 60 mg/kg.
In addition, to analyze the degree of inflammatory response and the degree of fibrosis two weeks after radiation exposure, H&E staining and Masson's Trichrome staining were performed, and the results are shown in FIG. 5.
as §1, with “prior to” for “before”, “PXDP” for “DCTP”
(§3) The PXDP drug was administered at a dose of 100 mg/kg, and nintedanib was administered once daily (o.d.) at a dose of 60 mg/kg. To analyze the degree of inflammatory response and the degree of fibrosis 2 weeks after radiation exposure, H&E staining and Masson's Trichrome staining were performed, and the results are shown in FIG. 11.

[2] = system: idiopathic pulmonary fibrosis induced by bleomycin; assay: Inhibitory effect on idiopathic pulmonary fibrosis induced by bleomycin, Micro-CT imaging; conditions: bleomycin 1.5 U/kg, nintedanib 60 mg/kg, oral once daily for two weeks from day 14, 4 weeks after bleomycin, vs untreated
Procedure: (§4) Each drug was administered starting 14 days after the administration of bleomycin. The drug was orally administered at a dose of 20 mg/kg once daily for two weeks (a total of 13 administrations). The control drug, nintedanib, was administered at a dose of 60 mg/kg, and the co-administration group was orally administered nintedanib (60 mg/kg) together with DCTP (20 mg/kg) once daily for two weeks (a total of 13 administrations).
(§5) Each drug was administered starting 14 days after the administration of bleomycin. Nintedanib and PXDP were each orally administered at a dose of 60 mg/kg once daily for two weeks (a total of 13 administrations), and the group treated with the combination was orally administered nintedanib (60 mg/kg) together with PXDP (60 mg/kg) once daily for two weeks (a total of 13 administrations).

[3] = system: idiopathic pulmonary fibrosis induced by bleomycin; assay: Degree of inflammation and fibrosis, H&E and Masson's Trichrome staining, bleomycin-induced idiopathic pulmonary fibrosis; conditions: bleomycin 1.5 U/kg, nintedanib 60 mg/kg, oral once daily for two weeks from day 14, vs untreated
Procedure: as §4
The results of H&E and Masson's Trichrome staining performed to evaluate the degree of inflammation and fibrosis are shown in FIG. 3.
as §5
The results of H&E and Masson's Trichrome staining performed to evaluate the degree of inflammation and fibrosis are shown in FIG. 8.

[4] = system: radiation-induced pulmonary fibrosis (RIPF); assay: Inhibitory effect on radiation-induced pulmonary fibrosis, Micro-CT imaging; conditions: SBRT 90 Gy, 2 weeks after radiation exposure; for degree of fibrosis by Micro-CT imaging: vs untreated
Procedure: as §1, §2
as §1, with “prior to” for “before”, “PXDP” for “DCTP”
as §3

[5] = Example 3, FIG. 5, DCTP 30 mg/kg
[6] = Example 5, FIG. 7, PXDP 60 mg/kg
[7] = Example 5, FIG. 8, PXDP 60 mg/kg
[8] = Example 6, FIG. 10, PXDP 100 mg/kg, nintedanib 60 mg/kg, oral
[9] = Example 6, FIG. 11, PXDP 100 mg/kg

SMILES	degree of inflammation and fibrosis by H&E and Masson's Trichrome staining [1, 5]	degree of fibrosis by Micro-CT imaging [2, 6]	degree of inflammation and fibrosis by H&E and Masson's Trichrome staining [3, 7]	effect compared with nintedanib (Micro-CT imaging) ([4]; Example 6, FIG. 10, PXDP 100 mg/kg vs nintedanib 60 mg/kg, oral)	degree of fibrosis by Micro-CT imaging [4, 8]	degree of inflammation and fibrosis by H&E and Masson's Trichrome staining [1, 9]	degree of fibrosis by Micro-CT imaging ([2]; Example 2, FIG. 2, DCTP 20 mg/kg)	degree of inflammation and fibrosis by H&E and Masson's Trichrome staining ([3]; Example 2, FIG. 3, DCTP 20 mg/kg)	degree of fibrosis by Micro-CT imaging ([4]; Example 3, FIG. 4, nintedanib 60 mg/kg oral once daily)
COc1cc2ncnc(N(C(=O)OCCN3CCN(C)CC3)c3ccc(F)c(Cl)c3)c2cc1NC(=O)/C=C/CN1CCCCC1 [DCTP, 2-(4-methylpiperazin-1-yl)ethyl (E)-(3-chloro-4-fluorophenyl) (7-methoxy-6-(4-(piperidin-1-yl)but-2-enamido)quinazolin-4-yl) carbamate]	reduction in fibrosis and inflammation in the lungs								
CN1CCN(CCOC(=O)N(Cc2ccc(C(F)(F)F)nc2)c2ccc(Cc3c[nH]c4ncc(Cl)cc34)cn2)CC1 [PXDP, 2-(4-methylpiperazin-1-yl)ethyl (5-((5-chloro-1H-pyrrolo[2,3-b]pyridin-3-yl)methyl)pyridin-2-yl)((6-(trifluoromethyl)pyridin-3-yl)methyl) carbamate]		reduction in the degree of fibrosis	alleviation of pulmonary fibrosis and inflammation	superior to that of nintedanib	reduction in the degree of fibrosis	alleviation of fibrosis and inflammation in the lungs			
COC(=O)c1ccc2c(c1)NC(=O)/C2=C(\Nc1ccc(N(C)C(=O)CN2CCN(C)CC2)cc1)c1ccccc1 [nintedanib]	reduction in fibrosis and inflammation in the lungs	reduction in the degree of fibrosis	alleviation of pulmonary fibrosis and inflammation		reduction in the degree of fibrosis	alleviation of fibrosis and inflammation in the lungs	reduction in the degree of fibrosis	alleviation of pulmonary fibrosis and inflammation	reduction in the degree of fibrosis
